# Results as given in patent US10472352B2, “Rac inhibitors” (Geneyus LLC, priority 2017, dated 2019).
# What was measured:
# MCF7 breast cancer cells = experiment: Tumor Burden, MCF7 tumors in mice; format: in vivo, Nod/Scid-gamma null immunocomprimised mice
# Description: MCF7 breast cancer cells grown were innoculated into Nod/Scid-gamma null immunocomprimised mice. The resulting tumors were allowed to reach approximately 100 mm^3 in size and then mice were randomized into vehicle, Faslodex®, 0032661, or Faslodex® plus 0032661 treatment groups. Faslodex® treated mice were dosed with 500 ug Faslodex® once a week via intramuscular injection. 0032661 treated mice were dosed with 35 mg/kg 0032661 five days a week via intraparatoneal injection. Tumors were measured by calipers twice a week.
# [1] = tested on: androgen receptor response gene (PSA) in LNCaP prostate cancer cells; experiment: Inhibition of Androgen Receptor Target Gene Transcription (PSA qPCR); format: cell-based; conditions: 10 nM DHT, 4 hours, 10 uM bicalutamide, 10 uM enzalutamide, 12.5 or 25 uM 0032661
# Description: After 4 hours, RNA was harvested and converted into cDNA. qPCR analysis for PSA was performed on all samples and normalized to expression of GAPDH. The data, shown in FIG. 11, is expressed as fold change relative to PSA expression of the cFBS sample.
# [2] = tested on: estrogen receptor response genes Cyclin D1 and pS2 in MCF7 breast cancer cells; experiment: Inhibition of Estrogen Receptor Target Gene Protein Expression (immunoblot); format: cell-based; conditions: MCF7, 10 nM E2, 18 hours
# Description: After 18 hours, protein was harvested. SDS-PAGE followed by immunoblotting of samples was performed using standard techniques. Protein lysates were immunoblotted for Estrogen Receptor (ER), Cyclin D1, pS2, and Actin.
# [3] = tested on: androgen receptor splice variant (ARV7) in LNCaP cells; experiment: LNCaP ARE Luciferase Assay, ARV7 cells; format: cell-based; conditions: LNCaP cells overexpressing ARV7, 10 nM DHT, 4 hours; 5 or 10 uM 0032661
# Description: LNCaP prostate cancer cells as well as LNCaP cells that overexpress the oncogenic androgen receptor splice variant (designated ARV7) were engineered to express an Androgen Receptor (AR) luciferase reporter (SABiosciences). […] After 4 hours, cell lysate was harvested. 50 μg protein lysates were used in a luciferase assay.
smiles,measurement,setting,value
"FC(F)(F)c1ccc2c(SCCCCCCn3cnc(CN4CCOCC4)c3)ccnc2c1 [Compound 0032661, 4-[[1-[6-[[7-(trifluoromethyl)-4-quinolyl]sulfanyl]hexyl]imidazol-4-yl]methyl]morpholine]","tumor burden, combination",MCF7 breast cancer cells; 500 ug Faslodex once a week intramuscular plus 35 mg/kg 0032661 five days a week,reduces tumor burden more than either single treatment alone
same,anti-tumoral effect (tumor size by calipers),"MCF7 breast cancer cells; 35 mg/kg five days a week, intraperitoneal",strong anti-tumoral effects
same,androgen receptor target gene transcription (PSA),[1],inhibit the androgen receptor target gene transcription
same,"estrogen receptor target gene protein expression, combination",[2]; 1 uM fulv plus 5 uM 0032661,reduces estrogen receptor target gene protein expression more than either single treatment alone
same,"protein levels of estrogen receptor target genes (Cyclin D1, pS2)","[2]; 1 uM fulvestrant, 5 or 10 uM 0032661",inhibit the increase in protein levels of estrogen receptor target genes
same,luciferase expression of the ARV7 splice variant,[3],inhibited luciferase expression of the ARV7 splice variant
